Measurements published in patent US10683310B2, “Compound for specifically binding to amyloid β-protein” (NEUBORON MEDTECH LTD., priority 2015, dated 2020).

What was measured:
[1] = stability in vitro of 11C-labeled compound determined by HPLC; format: physicochemical
Experimental: The stability of IIC-labeled 6-borono-2-(4-methylaminophenyl)benzothiazole in vitro was determined by HPLC, at selected time of 30 min and 60 min. […] Therefore, the radioactive chemical purity of the IIC-labeled radioactive compound met the experimental requirements.

[2] = tested on: amyloid β-protein deposition plaques; assay: Micro-PET scan of brain uptake in SAMP8 model mice and control mice; format: in vivo; conditions: for Cerebral cortex uptake of radiopharmaceuticals, Model mice / hippocampus uptake of radiopharmaceuticals, Model mice: SAMP8 model mice; for Cerebral cortex uptake of radiopharmaceuticals, Control mice / hippocampus uptake of radiopharmaceuticals, Control mice: normal control mice
Experimental: SAMP8 (senescence accelerated mouse prone 8) mice are the most common animal model of AD (Alzheimer's disease), in its brain there are a large number of amyloid deposition plaque. In this example, SAMP8 mice were used as model mice, and the normal mice were used as the control mice. Both the model mice and the control mice were 10 months old. The two mice were injected with 6-borono-2-(4-methylaminophenyl)benzothiazole containing labeling, and the Micro-PET scan is used to study whether 6-borono-2-(4-methylaminophenyl)benzothiazole and amyloid β-protein have specific binding properties. Model mice and control mice weighing 31.5±0.3 g were selected, 31.0±0.6 μCi of ^11C labelled 6-borono-2-(4-methylaminophenyl)benzothiazole were injected thereto, and Micro-PET of Model INVEON from Siemens were used for scan, where the scanning window was 350-650 KeV.
It is well known to those skilled in the art that the major cause of Alzheimer's disease is that the amyloid β-protein deposition plaques accumulate in the cerebral cortex and hippocampus of the brain. In this example, Micro-PET scanned and compared the brains of the model and control mice using PMOD software. And the absorption of radioactive 6-borono-2-(4-methylaminophenyl)benzothiazole in the cerebral cortex and hippocampus of SAMP8 model mice and control mice was determined, to further illustrate that the compound is capable of specifically binding to amyloid β-protein deposition plaques.

SMILES: CNc1ccc(-c2nc3ccc(B(O)O)cc3s2)cc1 [6-borono-2-(4-methylaminophenyl)benzothiazole]
- radioactive chemical purity (stability in vitro) ([1]; 30 min): 100%
- radioactive chemical purity (stability in vitro) ([1]; 60 min): 100%
- Cerebral cortex uptake Ratio (model mice/control mice) ([2]; 5 min after injection): 1.9
- hippocampus uptake Ratio (model mice/control mice) ([2]; 5 min after injection): 1.9
- Cerebral cortex uptake Ratio (model mice/control mice) ([2]; 15 min after injection): 1.9
- hippocampus uptake Ratio (model mice/control mice) ([2]; 15 min after injection): 2.3
- Cerebral cortex uptake Ratio (model mice/control mice) ([2]; 25 min after injection): 2.4
- hippocampus uptake Ratio (model mice/control mice) ([2]; 25 min after injection): 3.2
- Cerebral cortex uptake Ratio (model mice/control mice) ([2]; 35 min after injection): 2.7
- hippocampus uptake Ratio (model mice/control mice) ([2]; 35 min after injection): 3.2
- Cerebral cortex uptake of radiopharmaceuticals, Model mice ([2]; 5 min after injection): 3.03 % ID/g
- hippocampus uptake of radiopharmaceuticals, Model mice ([2]; 5 min after injection): 3.44 % ID/g
- Cerebral cortex uptake of radiopharmaceuticals, Model mice ([2]; 15 min after injection): 2.88 % ID/g
- hippocampus uptake of radiopharmaceuticals, Model mice ([2]; 15 min after injection): 3.50 % ID/g
- Cerebral cortex uptake of radiopharmaceuticals, Model mice ([2]; 25 min after injection): 2.79 % ID/g
- hippocampus uptake of radiopharmaceuticals, Model mice ([2]; 25 min after injection): 3.45 % ID/g
- Cerebral cortex uptake of radiopharmaceuticals, Model mice ([2]; 35 min after injection): 2.68 % ID/g
- hippocampus uptake of radiopharmaceuticals, Model mice ([2]; 35 min after injection): 3.27 % ID/g
- brain radiopharmaceutical absorption (PET image) ([2]; SAMP8 model mouse versus control mice, 30 min after injection, FIGS. 5A and 5B): accumulated a large amount of radiopharmaceuticals relative to the brain of the control mice
- Cerebral cortex uptake of radiopharmaceuticals, Control mice ([2]; 5 min after injection): 1.61 % ID/g
- hippocampus uptake of radiopharmaceuticals, Control mice ([2]; 5 min after injection): 1.80 % ID/g
- Cerebral cortex uptake of radiopharmaceuticals, Control mice ([2]; 15 min after injection): 1.48 % ID/g
- hippocampus uptake of radiopharmaceuticals, Control mice ([2]; 15 min after injection): 1.49 % ID/g
- Cerebral cortex uptake of radiopharmaceuticals, Control mice ([2]; 25 min after injection): 1.17 % ID/g
- hippocampus uptake of radiopharmaceuticals, Control mice ([2]; 25 min after injection): 1.09 % ID/g
- Cerebral cortex uptake of radiopharmaceuticals, Control mice ([2]; 35 min after injection): 0.99 % ID/g
- hippocampus uptake of radiopharmaceuticals, Control mice ([2]; 35 min after injection): 1.01 % ID/g
